According to US11248024B2, “Noxa-derived, cell death-inducing peptide eMTD” (INDUSTRY-ACADEMIC COOPERATION FOUNDATION, CHOSUN UNIVERSITY, priority 2019, dated 2022):
Ends that are not written are not given here. FAM = fluorescein

Assays:
[1] = system: mitochondria isolated from livers of BalB/C mice; test: Mitochondrial swelling, absorbance at 540 nm / TEM; type: biochemical; conditions: peptides 25 μM, Ca2+ 200 μM, CsA 20 μM
Description: First, livers excised from 6-week-old BalB/C mice were immersed in buffer (250 mM mannitol, […], 5 mM HEPES, pH 7.4, 0.1 mM PMSF and 4 rotenone) and completely homogenized using a Teflon Potter-Elvehjem grinder (Sigma). The ground liver was centrifuged at 1000×g for 10 min at 4° C. and the supernatants were centrifuged at 10,000×g for 10 min at 4° C. The pellets thus obtained were suspended in a regeneration buffer (250 mM sucrose, 10 mM HEPES, pH 7.4, 5 mM sodium succinate, 2 mM potassium phosphate, 0.1 mM PMSF, 25 μM EGTA, and 4 rotenone).
The mitochondria thus obtained were treated with 25 μM of eMTD (SEQ ID NO: 1) or eMTDΔ4 (SEQ ID NO: 2), followed by reading absorbance at 540 nm to determine mitochondrial swelling.

HeLa = test: MTS assay, relative cell viability, HeLa; type: cell-based, human; conditions: for Viability (%): one hour treatment, Table 3
Description: Individual cell lines (HeLa, CT26, and B16F10) were purchased from the Korean Cell Line Bank. Dulbecco's modified Eagle's medium (DMEM), trypsin-EDTA, fetal bovine serum (FBS), and Hank's balanced salt solution (HBSS) were products from Gibco (Thermo Fisher).
Each of the cell lines was cultured in DMEM supplemented with 10% FBS in an incubator maintained at 37° C. and 5% 002.
For use in assaying the peptides eMTD (SEQ ID NO: 1) and eMTDΔ4 (SEQ ID NO: 2) synthesized in Example 1 for activity of inducing cell death, the cell line HeLa was grown to about 90% confluency in 96-well plates. The cells were washed once with HBSS buffer before treatment with the peptides of the present disclosure eMTD (SEQ ID NO: 1) and eMTDΔ4 (SEQ ID NO: 2) at concentrations of 0, 20, and 40 for one hour. Thereafter, the cells were incubated with an MTS assay agent (Promega) for one hour, followed by reading absorbance to calculate relative viability of cells.
Examination was made to see whether the peptide has the activity of inducing cell death in other cancer cell lines. In this regard, the cancer cell lines HeLa, CT26, and B16F10 were treated with eMTDΔ4 (SEQ ID NO: 2) at concentrations of 0, 20, and 40 μM.

[2] = Two-step assay, damage on lipid membrane of liposomes (TbCl3/DPA fluorescence); type: biochemical; conditions: for Relative Fluorescence Intensity: liposomes, excitation 276 nm, read at 490 nm
Description: In brief, DOPS, DOPE, and DOPC (Avanti Polar Lipids) were dissolved at the ratio of 2:4:3 in chloroform, followed by vaporization. The residue was again dissolved at the concentration of 2 mg/mL in TbCl3 buffer (15 mM TbCl3, 50 mM sodium citrate, 20 mM HEPES, 150 mM NaCl, pH 7.4). The lipid mixture was extruded by Mini extruder (Avanti Polar Lipids) with a 400 nm to prepare liposomes which were washed with washing buffer (150 mM NaCl, 20 mM HEPES, pH 7.4) and then resuspended in an assay buffer (50 DPA, […], 20 mM HEPES, pH 7.4). The suspension was plated into 96-well plates and treated with 0, 10, or 25 μM of eMTD (SEQ ID NO: 1) or eMTDΔ4 (SEQ ID NO: 2). After stimulation with 276 nm laser, fluorescence was read at 490 nm.

HeLa cells [3] = test: Intracellular localization of FAM-labelled peptide, confocal images (TOM20, DAPI); type: cell-based, human; conditions: 5 and 10 min incubation, fixed
Description: In order to investigate the source that allowed the intracellular calcium influx observed in Example 4, examination was made of the site at which the peptide eMTDΔ4 (SEQ ID NO: 2) acts. In this regard, the fluorescent tracer fluorescein was labeled to the C-terminal of the peptide eMTDΔ4 (SEQ ID NO: 2) (eMTDΔ4 (SEQ ID NO: 2)-FAM). Then, HeLa cells grown on Lab-Tek chamber glass were incubated with eMTDΔ4 (SEQ ID NO: 2)-FAM for 5 and 10 min before fixation with 1% paraformaldehyde.
Mitochondria were visualized using an antibody to TOM20, which localizes to the outer membrane of the mitochondrion because MTD (SEQ ID NO: 3) is known to migrate to mitochondria, while nuclei were visualized using DAPI.

HeLa cells [4] = test: Time-lapse confocal microscopy of peptide entry, Mito-DsRed2 transfected cells; type: cell-based, human; conditions: images every five seconds for 10 min
Description: In order to investigate the temporal order and cause relation between the introduction of eMTDΔ4 (SEQ ID NO: 2) and the damage of mitochondrial membrane and cell membrane, mitochondria were visualized by transfecting Mito-DsRed2 into HeLa cells one day before the experiment. Thereafter, eMTDΔ4 (SEQ ID NO: 2)-FAM was applied to the HeLa cells images of which were then taken every five seconds for 10 min under a confocal microscope.

Compound: [Ca+2] [Ca, reference compound]
- Mitochondrial swelling, relative absorbance at 540 nm ([1]; Minute 0): 100%
- Mitochondrial swelling, relative absorbance at 540 nm ([1]; Minute 10): 77%
- Mitochondrial swelling, relative absorbance at 540 nm ([1]; Minute 20): 75%
- Mitochondrial swelling, relative absorbance at 540 nm ([1]; Minute 30): 73%
- Mitochondrial swelling, relative absorbance at 540 nm ([1]; Minute 40): 72%
- Mitochondrial swelling, relative absorbance at 540 nm ([1]; Minute 50): 70%
- Mitochondrial swelling, relative absorbance at 540 nm ([1]; Minute 60): 70%

Compound: KLNFRQKLLNLISKLFCSGT [eMTD]
- Mitochondrial swelling, relative absorbance at 540 nm ([1]; Minute 0): 100%
- Mitochondrial swelling, relative absorbance at 540 nm ([1]; Minute 10): 86%
- Mitochondrial swelling, relative absorbance at 540 nm ([1]; Minute 20): 78%
- Mitochondrial swelling, relative absorbance at 540 nm ([1]; Minute 30): 71%
- Mitochondrial swelling, relative absorbance at 540 nm ([1]; Minute 40): 68%
- Mitochondrial swelling, relative absorbance at 540 nm ([1]; Minute 50): 68%
- Mitochondrial swelling, relative absorbance at 540 nm ([1]; Minute 60): 67%
- Viability (%) (HeLa; 20 μM): 61%
- Viability (%) (HeLa; 40 μM): 63%
- cell death activity (in words) (HeLa; FIG. 1 and Table 3): potent cell death activity
- liposome lipid membrane damage (in words) ([2]; FIGS. 10A to 10C and Table 6): higher fluorescence intensity was detected
- Relative Fluorescence Intensity ([2]; 10 μM): 27%
- Relative Fluorescence Intensity ([2]; 25 μM): 55%

Compound: MPGKKARKNAQPSPARAPAELEVECATQLRRFGDKLNFRQKLLNLISKLFCSGT (cysteines drawn unpaired) [fl-Noxa, reference compound]
- Viability (%) (HeLa; 20 μM): 101%
- Viability (%) (HeLa; 40 μM): 106%

Compound: eMTDΔ4-FAM: fluorescent tracer fluorescein labeled to the C-terminal of the peptide eMTDΔ4 (KLNFRQKLLNLISKLF-{FAM})
- intracellular localization (HeLa cells [3]): consistent with the visualized positions of mitochondria
- mitochondrial morphology (HeLa cells [3]): mitochondrial fragmentation was observed
- entry of peptide into cells (HeLa cells [4]): diffused into the cytosol through the cell membrane bubbles
